Source: PubChem BioAssay (NCI)
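Cultured in 96-well plates, cells were exposed to test compound for 48 hours across five concentrations. TGI marks complete inhibition of growth.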

Columns and labels:
Experiment in all cases: growth of human tumour cells (NCI), 48 h
[1] = test system: NCI-H226 lung
[2] = test system: HL-60(TB) leukemia
[3] = test system: RXF 393 renal
[4] = test system: SF-268 CNS
[5] = test system: COLO 205 colon
[6] = test system: NCI-H522 lung
[7] = test system: MCF7 breast
[8] = test system: HT29 colon
[9] = test system: MDA-MB-231 breast
[10] = test system: SK-OV-3 ovarian
[11] = test system: UACC-62 melanoma
[12] = test system: RPMI-8226 leukemia
[13] = test system: M14 melanoma
[14] = test system: MDA-N
[15] = test system: UACC-257 melanoma
[16] = test system: SNB-75 CNS
[17] = test system: PC-3 prostate
[18] = test system: EKVX NSCLC
[19] = test system: UO-31 renal
[20] = test system: HS 578T breast
[21] = test system: OVCAR-8 ovarian
[22] = test system: MDA-MB-435
[23] = test system: NCI/ADR-RES ovarian
[24] = test system: NCI-H23 lung
[25] = test system: HCT-116 colon
[26] = test system: HOP-92 NSCLC
[27] = test system: A549 NSCLC
[28] = test system: IGROV1 ovarian
[29] = test system: KM12 colon
[30] = test system: K-562 leukemia
[31] = test system: CAKI-1 renal
[32] = test system: MALME-3M melanoma
[33] = test system: U251 CNS
[34] = test system: SR leukemia
[35] = test system: BT-549 breast
[36] = test system: OVCAR-4 ovarian
[37] = test system: CCRF-CEM leukemia
[38] = test system: OVCAR-5 ovarian
[39] = test system: SW-620 colon
[40] = test system: ACHN renal
[41] = test system: DU-145 prostate
[42] = test system: SK-MEL-2 melanoma
[43] = test system: 786-0 renal
[44] = test system: HCC-2998 colon
[45] = test system: NCI-H460 lung
[46] = test system: HCT-15 colon
[47] = test system: HOP-62 NSCLC
[48] = test system: SK-MEL-28 melanoma
[49] = test system: SN12C renal
[50] = test system: TK-10 renal
[51] = test system: SK-MEL-5 melanoma
[52] = test system: OVCAR-3 ovarian
[53] = test system: LOX IMVI melanoma
[54] = test system: SF-295 CNS
[55] = test system: A498 renal
[56] = test system: T-47D breast
[57] = test system: SNB-19 CNS
[58] = test system: MOLT-4 leukemia
[59] = test system: SF-539 CNS

Measured: TGI

NS(=O)(=O)c1cc(C(=O)O)c(Cl)c([N+](=O)[O-])c1Cl
> 100 µM: all assays above
